Data taken from ChEMBL document CHEMBL1140017, “Anti-AIDS agents 72. Bioisosteres (7-carbon-DCKs) of the potent anti-HIV lead DCK” (Bioorg Med Chem Lett, 2007).

Tests used:
H9 = test: Cytotoxicity against H9 cells assessed as growth inhibition; format: cell-based; settings: Homo sapiens
[1] = test system: Human immunodeficiency virus; test: Antiviral activity against HIV replication in H9 cells; format: functional, organism-based; settings: Human immunodeficiency virus 1, H9
[2] = Therapeutic index, IC50 for H9 cells to EC50 for HIV; format: cell-based; settings: human, read-out: Ratio IC50/EC50

Row | EC50 [1] | Structure (SMILES) | IC50 (H9) | selectivity ratio [2]
1 | 83 nM | Cc1cc(=O)oc2c3c(ccc12)CC[C@H](OC(=O)C12CCC(C)(C(=O)O1)C2(C)C)[C@@H]3OC(=O)C12CCC(C)(C(=O)O1)C2(C)C (stereo partly specified) | 54400 nM | 659
2 | 68 nM | CC12CCC(C(=O)O[C@H]3CCc4ccc5ccc(=O)oc5c4[C@H]3OC(=O)C34CCC(C)(C(=O)O3)C4(C)C)(OC1=O)C2(C)C (stereo partly specified) | 57200 nM | 841
3 | < 390 nM | Cc1cc(=O)oc2c3c(ccc12)CC(C)(C)[C@H](OC(=O)C12CCC(C)(C(=O)O1)C2(C)C)[C@@H]3OC(=O)C12CCC(C)(C(=O)O1)C2(C)C (stereo partly specified) | > 39400 nM | > 100
4 | 13.7 nM | Cc1cn([C@H]2C[C@H](N=[N+]=[N-])[C@@H](CO)O2)c(=O)[nH]c1=O [ZIDOVUDINE] | – | 36500
